Test results taken from PubChem BioAssay (NCI).
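GI50: concentration for 50% inhibition of growth. At the TGI there is no net growth.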

How the values were obtained:
Test in all cases: NCI-60 cell line screen, 384-well format
786-0 renal = system: 786-0 renal
A498 renal = system: A498 renal
A549 NSCLC = system: A549 NSCLC
ACHN renal = system: ACHN renal
BT-549 breast = system: BT-549 breast
CAKI-1 renal = system: CAKI-1 renal
CCRF-CEM leukemia = system: CCRF-CEM leukemia
COLO 205 colon = system: COLO 205 colon
DU-145 prostate = system: DU-145 prostate
EKVX NSCLC = system: EKVX NSCLC
HCC-2998 colon = system: HCC-2998 colon
HCT-15 colon = system: HCT-15 colon
HL-60(TB) leukemia = system: HL-60(TB) leukemia
HOP-62 NSCLC = system: HOP-62 NSCLC
HOP-92 NSCLC = system: HOP-92 NSCLC
HS 578T breast = system: HS 578T breast
HT29 colon = system: HT29 colon
IGROV1 ovarian = system: IGROV1 ovarian
KM12 colon = system: KM12 colon
M14 melanoma = system: M14 melanoma
MALME-3M melanoma = system: MALME-3M melanoma
MCF7 breast = system: MCF7 breast
MDA-MB-231 breast = system: MDA-MB-231 breast
MDA-MB-435 melanoma = system: MDA-MB-435 melanoma
MDA-MB-468 breast = system: MDA-MB-468 breast
MOLT-4 leukemia = system: MOLT-4 leukemia
NCI-H226 lung = system: NCI-H226 lung
NCI-H23 lung = system: NCI-H23 lung
NCI-H322M lung = system: NCI-H322M lung
NCI-H460 NSCLC = system: NCI-H460 NSCLC
NCI-H522 lung = system: NCI-H522 lung
NCI/ADR-RES ovarian = system: NCI/ADR-RES ovarian
OVCAR-3 ovarian = system: OVCAR-3 ovarian
OVCAR-4 ovarian = system: OVCAR-4 ovarian
OVCAR-5 ovarian = system: OVCAR-5 ovarian
OVCAR-8 ovarian = system: OVCAR-8 ovarian
PC-3 prostate = system: PC-3 prostate
RPMI-8226 leukemia = system: RPMI-8226 leukemia
RXF 393 renal = system: RXF 393 renal
SF-268 CNS = system: SF-268 CNS
SF-295 CNS = system: SF-295 CNS
SF-539 CNS = system: SF-539 CNS
SK-MEL-2 melanoma = system: SK-MEL-2 melanoma
SK-MEL-28 melanoma = system: SK-MEL-28 melanoma
SK-MEL-5 melanoma = system: SK-MEL-5 melanoma
SK-OV-3 ovarian = system: SK-OV-3 ovarian
SN12C renal = system: SN12C renal
SNB-19 CNS = system: SNB-19 CNS
SNB-75 CNS = system: SNB-75 CNS
SR leukemia = system: SR leukemia
SW-620 colon = system: SW-620 colon
T-47D breast = system: T-47D breast
TK-10 renal = system: TK-10 renal
U251 glioblastoma = system: U251 glioblastoma
UACC-257 melanoma = system: UACC-257 melanoma
UACC-62 melanoma = system: UACC-62 melanoma

With `CC1(C)CC(O)CC(C)(C)N1O` the GI50 (786-0 renal) was > 100 µM, the TGI (786-0 renal) was > 100 µM and the GI50 (A498 renal) was > 100 µM. The TGI (A498 renal) was > 100 µM, the GI50 (A549 NSCLC) was > 100 µM and the TGI (A549 NSCLC) was > 100 µM. For the same compound, the GI50 (ACHN renal) was > 100 µM, the TGI (ACHN renal) was > 100 µM and the GI50 (BT-549 breast) was > 100 µM. The TGI (BT-549 breast) was > 100 µM, the GI50 (CAKI-1 renal) was > 100 µM and the TGI (CAKI-1 renal) was > 100 µM. The GI50 (CCRF-CEM leukemia) was 47.2 µM, the TGI (CCRF-CEM leukemia) was > 100 µM and the GI50 (COLO 205 colon) was > 100 µM. For the same compound, the TGI (COLO 205 colon) was > 100 µM, the GI50 (DU-145 prostate) was > 100 µM and the TGI (DU-145 prostate) was > 100 µM. For the same compound, the GI50 (EKVX NSCLC) was > 100 µM, the TGI (EKVX NSCLC) was > 100 µM and the GI50 (HCC-2998 colon) was > 100 µM. The TGI (HCC-2998 colon) was > 100 µM, the GI50 (HCT-15 colon) was > 100 µM and the TGI (HCT-15 colon) was > 100 µM. The GI50 (HL-60(TB) leukemia) was > 100 µM, the TGI (HL-60(TB) leukemia) was > 100 µM and the GI50 (HOP-62 NSCLC) was > 100 µM. For the same compound, the TGI (HOP-62 NSCLC) was > 100 µM, the GI50 (HOP-92 NSCLC) was > 100 µM and the TGI (HOP-92 NSCLC) was > 100 µM. The GI50 (HS 578T breast) was > 100 µM, the TGI (HS 578T breast) was > 100 µM and the GI50 (HT29 colon) was > 100 µM. The TGI (HT29 colon) was > 100 µM, the GI50 (IGROV1 ovarian) was > 100 µM and the TGI (IGROV1 ovarian) was > 100 µM. For the same compound, the GI50 (KM12 colon) was > 100 µM, the TGI (KM12 colon) was > 100 µM and the GI50 (M14 melanoma) was > 100 µM. For the same compound, the TGI (M14 melanoma) was > 100 µM, the GI50 (MALME-3M melanoma) was > 100 µM and the TGI (MALME-3M melanoma) was > 100 µM. For the same compound, the GI50 (MCF7 breast) was > 100 µM, the TGI (MCF7 breast) was > 100 µM and the GI50 (MDA-MB-231 breast) was > 100 µM. For the same compound, the TGI (MDA-MB-231 breast) was > 100 µM, the GI50 (MDA-MB-435 melanoma) was > 100 µM and the TGI (MDA-MB-435 melanoma) was > 100 µM. The GI50 (MDA-MB-468 breast) was 29.8 µM, the TGI (MDA-MB-468 breast) was > 100 µM and the GI50 (MOLT-4 leukemia) was 44.5 µM. For the same compound, the TGI (MOLT-4 leukemia) was > 100 µM, the GI50 (NCI-H226 lung) was > 100 µM and the TGI (NCI-H226 lung) was > 100 µM. The GI50 (NCI-H23 lung) was > 100 µM, the TGI (NCI-H23 lung) was > 100 µM and the GI50 (NCI-H322M lung) was > 100 µM. For the same compound, the TGI (NCI-H322M lung) was > 100 µM, the GI50 (NCI-H460 NSCLC) was > 100 µM and the TGI (NCI-H460 NSCLC) was > 100 µM. For the same compound, the GI50 (NCI-H522 lung) was > 100 µM, the TGI (NCI-H522 lung) was > 100 µM and the GI50 (NCI/ADR-RES ovarian) was > 100 µM. The TGI (NCI/ADR-RES ovarian) was > 100 µM, the GI50 (OVCAR-3 ovarian) was 71.7 µM and the TGI (OVCAR-3 ovarian) was > 100 µM. The GI50 (OVCAR-4 ovarian) was 19.9 µM, the TGI (OVCAR-4 ovarian) was > 100 µM and the GI50 (OVCAR-5 ovarian) was > 100 µM. For the same compound, the TGI (OVCAR-5 ovarian) was > 100 µM, the GI50 (OVCAR-8 ovarian) was > 100 µM and the TGI (OVCAR-8 ovarian) was > 100 µM. For the same compound, the GI50 (PC-3 prostate) was > 100 µM, the TGI (PC-3 prostate) was > 100 µM and the GI50 (RPMI-8226 leukemia) was > 100 µM. For the same compound, the TGI (RPMI-8226 leukemia) was > 100 µM, the GI50 (RXF 393 renal) was > 100 µM and the TGI (RXF 393 renal) was > 100 µM. The GI50 (SF-268 CNS) was > 100 µM, the TGI (SF-268 CNS) was > 100 µM and the GI50 (SF-295 CNS) was > 100 µM. The TGI (SF-295 CNS) was > 100 µM, the GI50 (SF-539 CNS) was > 100 µM and the TGI (SF-539 CNS) was > 100 µM. For the same compound, the GI50 (SK-MEL-2 melanoma) was > 100 µM, the TGI (SK-MEL-2 melanoma) was > 100 µM and the GI50 (SK-MEL-28 melanoma) was > 100 µM. For the same compound, the TGI (SK-MEL-28 melanoma) was > 100 µM, the GI50 (SK-MEL-5 melanoma) was > 100 µM and the TGI (SK-MEL-5 melanoma) was > 100 µM. For the same compound, the GI50 (SK-OV-3 ovarian) was > 100 µM, the TGI (SK-OV-3 ovarian) was > 100 µM and the GI50 (SN12C renal) was > 100 µM. For the same compound, the TGI (SN12C renal) was > 100 µM, the GI50 (SNB-19 CNS) was > 100 µM and the TGI (SNB-19 CNS) was > 100 µM. For the same compound, the GI50 (SNB-75 CNS) was > 100 µM, the TGI (SNB-75 CNS) was > 100 µM and the GI50 (SR leukemia) was > 100 µM. For the same compound, the TGI (SR leukemia) was > 100 µM, the GI50 (SW-620 colon) was > 100 µM and the TGI (SW-620 colon) was > 100 µM. The GI50 (T-47D breast) was > 100 µM, the TGI (T-47D breast) was > 100 µM and the GI50 (TK-10 renal) was > 100 µM. For the same compound, the TGI (TK-10 renal) was > 100 µM, the GI50 (U251 glioblastoma) was > 100 µM and the TGI (U251 glioblastoma) was > 100 µM. The GI50 (UACC-257 melanoma) was > 100 µM, the TGI (UACC-257 melanoma) was > 100 µM and the GI50 (UACC-62 melanoma) was > 100 µM. The TGI (UACC-62 melanoma) was > 100 µM.
